Assay results reported in patent US20150329498A1, “IRAK INHIBITORS AND USES THEREOF” (Nimbus Iris, Inc., priority 2014, published 2015).

Key:
IRAK4 = target: T1, IRAK4 (Homo sapiens, UniProt Q9NWZ3); assay: IRAK-4 activity inhibition assay (Caliper); type: biochemical; settings: 3.5 nM IRAK4, 1.5 μM Peptide 8, 37 μM ATP
T1 construct: purchased CARNA Bioscience 09-145
T1 sequence (Q9NWZ3 1-460): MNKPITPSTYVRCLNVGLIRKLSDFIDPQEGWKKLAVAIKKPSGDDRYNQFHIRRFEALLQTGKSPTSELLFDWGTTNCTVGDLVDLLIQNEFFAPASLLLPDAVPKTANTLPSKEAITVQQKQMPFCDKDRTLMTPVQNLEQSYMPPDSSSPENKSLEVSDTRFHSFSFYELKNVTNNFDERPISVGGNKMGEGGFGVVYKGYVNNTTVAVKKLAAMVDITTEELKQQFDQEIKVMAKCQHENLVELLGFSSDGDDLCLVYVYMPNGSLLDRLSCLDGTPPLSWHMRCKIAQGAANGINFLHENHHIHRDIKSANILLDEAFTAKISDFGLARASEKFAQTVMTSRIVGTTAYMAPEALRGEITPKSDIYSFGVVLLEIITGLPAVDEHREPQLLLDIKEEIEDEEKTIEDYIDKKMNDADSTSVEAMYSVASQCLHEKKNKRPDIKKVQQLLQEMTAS
Procedure: A 1x kinase base buffer was prepared from 50 mM HEPES, pH 7.5 and 0.0015% Brij-35. A stop buffer was prepared from 100 mM HEPES, pH 7.5, 0.015% Brij-35, 0.2% Coating Reagent #3, and 50 mM EDTA.
Test compound was diluted to 50× of the final desired highest inhibitor concentration in reaction by 100% DMSO. 100 ul of this compound dilution was transferred to a well in a 96-well plate. For example, if desired highest inhibitor concentration in IC50 determination is 100 uM, then prepare 5000 uM of compound DMSO solution in this step.
Test compound was serially diluted by transferring 30 μl to 60 μl of 100% DMSO in the next well and so forth for a total of 10 concentrations. 100 μl of 100% DMSO was added to two empty wells for no compound control and no enzyme control in the same 96-well plate.
A new 96-well plate was marked as intermediate plate. 5 μl of compound serial dilution was transferred from source plate to the corresponding wells of the intermediate plate. 45 μl of 1x kinase base buffer (KB buffer) was added to each well of the intermediate plate. The intermediate plate was placed for 10 min on a shaker.
5 μl of each well was transferred from the 96-well intermediate plate to a 384-well plate in duplicates. For example, A1 of the 96-well plate is transferred to A1 and A2 of the 384-well plate. A2 of the 96-well plate is transferred to A3 and A4 of the 384-well plate, and so on.
IRAK4 and DTT in 1x kinase base buffer was added. The 2.5x enzyme mix contained 8.8 nM IRAK4 and 5 mM DTT.
Peptide 8, ATP, MgCl2 and MnCl2 were added in the 1x kinase base buffer. The 2.5x peptide mix contained 3.75 μM peptide 8, 92.5 μM ATP, 12.5 mM MgCl2 and 2.5 mM MnCl2.
Assay plate already contained 5 μl of compound in 10% DMSO. Added 10 μl of 2.5x enzyme solution to each well of the 384-well assay plate, except no enzyme control wells. The final concentration of IRAK4 in reaction was 3.5 nM. Added 10 μl of 1x kinase base buffer to no enzyme control wells in the assay plate. Incubated at room temperature for 10 min.
Added 10 μl of 2.5x peptide solution to each well of the 384-well assay plate. The final concentration of Peptide 8 and ATP was 1.5 μM and 37 μM, respectively. Incubated at for 40 minutes. Added 25 μl of stop buffer to stop reaction. Collected data on Caliper.
Copied conversion % data from Caliper program. Converted conversion % values to percent inhibition values. Percent inhibition=(max−conversion %)/(max−min)*100, where “max” means the conversion % of DMSO control and “min” means the conversion % of no enzyme control.
The compound numbers correspond to the compound numbers in Table 1. Compounds having an activity designated as “A” provided an IC50≦5 μM; compounds having an activity designated as “B” provided an IC50 of 5-20 μM; compounds having an activity designated as “C” provided an IC50 of 20-50 μM; and compounds having an activity designated as “D” provided an IC50≧50 μM. “NA” stands for “not assayed.”

[1] = test system: IL8 production in THP-1 cells; assay: LPS induced IL8 production assay in THP-1 cells; type: cell-based; settings: Homo sapiens, 300 ng/mL LPS, measured at 16 hours
Procedure: (§1) Provided compounds were also assayed in an LPS (Lipopolysaccharide) or R848 (TLR-7 agonist) induced cytokine (TNFα and IL8) production assay in THP-1 cells, human white blood cells (hWBC), and human whole blood. The exemplary protocol for this assay in THP-1 cells was as follows below.
(§2) THP-1 cells from ATCC (TIB-202) were cultured in RPMI Medium 1640 (Invitrogen, Cat No. A10491-01), 10% fetal bovine serum (Invitrogen, Cat No. 10099141, Lot No. 8172882) containing 100 U/mL Penicillin, 100 μg/mL streptomycin (Invitrogen, Cat No. 15140-122), and 50 uM 2-Mercaptoethanol (Invitrogen, Cat No. 21985023). LPS-EK ultra pure (Invivogen, Cat No. tlrl-peklps) was used to induce IL8 and TNFα production, that was detected in the cell culture supernatant by IL8 HTRF kit (Cisbio, Cat No. 62IL8PEB) and TNFα HTRF kit (Cisbio, Cat No. 62TNFPEB), as per manufacturer instructions. Cells were cultured in 96 well assay plates at 100,000 cells per well, and compounds diluted in final 0.3% DMSO were pre-incubated with cells for 1 hour prior to stimulation with 300 ng/mL LPS. Cytokine production in cell supernatant was measured at 5 hours for TNFα production, and at 16 hours for IL8 production and assessment of cell viability.
(§3) The compound numbers correspond to the compound numbers in Table 1. Compounds having an activity designated as “A” provided an IC50≦0.5 μM; compounds having an activity designated as “B” provided an IC50 of 0.5-5.0 μM; compounds having an activity designated as “C” provided an IC50>5.0 μM. “NA” stands for “not assayed.”

[2] = test system: TNFα production in THP-1 cells; assay: LPS induced TNFα production assay in THP-1 cells; type: cell-based; settings: Homo sapiens, 300 ng/mL LPS, measured at 5 hours
Procedure: as §1, §2, §3

Compound | IC50 (IRAK4) | IC50 [1] | IC50 [2]
Brc1ccc2ncnc(N[C@H]3CC[C@H](N4CCOCC4)CC3)c2c1 [Compound I-2, 6-bromo-N-((1r,4r)-4-morpholinocyclohexyl)quinazolin-4-amine] | ≤ 5 µM | ≤ 0.5 µM | ≤ 0.5 µM
NC(=O)c1ccc2ncnc(N[C@H]3CC[C@H](N4CCOCC4)CC3)c2c1 [Compound I-5, 4-(((1r,4r)-4-morpholinocyclohexyl)amino)quinazoline-6-carboxamide] | ≤ 5 µM | > 5 µM | 0.5 to 5 µM
Cn1cc(Nc2nc(N[C@H]3CC[C@H](N4CCOCC4)CC3)c3cc(Br)ccc3n2)cn1 [Compound I-10, 6-bromo-N2-(1-methyl-1H-pyrazol-4-yl)-N4-((1r,4r)-4-morpholinocyclohexyl)quinazoline-2,4-diamine] | ≤ 5 µM | ≤ 0.5 µM | ≤ 0.5 µM
Cn1cc(Nc2nc(N[C@H]3CC[C@H](N4CCOCC4)CC3)c3cc(C#N)ccc3n2)cn1 [Compound I-11, 2-((1-methyl-1H-pyrazol-4-yl)amino)-4-(((1r,4r)-4-morpholino-cyclohexyl)amino)quinazoline-6-carbonitrile] | ≤ 5 µM | ≤ 0.5 µM | ≤ 0.5 µM
N#Cc1ccc2ncnc(N[C@H]3CC[C@H](N4CCC5(CC4)COC5)CC3)c2c1 [Compound I-14, 4-(((1r,4r)-4-(2-oxa-7-azaspiro[3.5]nonan-7-yl)cyclohexyl)amino)-quinazoline-6-carbonitrile] | ≤ 5 µM | ≤ 0.5 µM | ≤ 0.5 µM
CCc1ccc2ncnc(N[C@H]3CC[C@H](N4CCOCC4)CC3)c2c1 [Compound I-15, 6-ethyl-N-((1r,4r)-4-morpholinocyclohexyl)quinazolin-4-amine] | ≤ 5 µM | ≤ 0.5 µM | ≤ 0.5 µM
N#Cc1ccc2nc(Nc3cnn(C4CCOCC4)c3)nc(N[C@H]3CC[C@H](N4CCOCC4)CC3)c2c1 [Compound I-16, 4-(((1r,4r)-4-morpholinocyclohexyl)amino)-2-((1-(tetrahydro-2H-pyran-4-yl)-1H-pyrazol-4-yl)amino)quinazoline-6-carbonitrile] | ≤ 5 µM | ≤ 0.5 µM | ≤ 0.5 µM
C=Cc1ccc2ncnc(N[C@H]3CC[C@H](N4CCOCC4)CC3)c2c1 [Compound I-20, N-((1r,4r)-4-morpholinocyclohexyl)-6-vinylquinazolin-4-amine] | ≤ 5 µM | – | ≤ 0.5 µM
N#Cc1ccc2nc(Nc3cnn(CCO)c3)nc(N[C@H]3CC[C@H](N4CCOCC4)CC3)c2c1 [Compound I-22, 2-((1-(2-hydroxyethyl)-1H-pyrazol-4-yl)amino)-4-(((1r,4r)-4-morpholinocyclohexyl)amino)quinazoline-6-carbonitrile] | ≤ 5 µM | ≤ 0.5 µM | 0.5 to 5 µM
N#Cc1ccc2nc(Nc3cnn(CCOCCO)c3)nc(N[C@H]3CC[C@H](N4CCOCC4)CC3)c2c1 [Compound I-24, 2-((1-(2-(2-hydroxyethoxy)ethyl)-1H-pyrazol-4-yl)amino)-4-(((1r,4r)-4-morpholinocyclohexyl)amino)quinazoline-6-carbonitrile] | ≤ 5 µM | ≤ 0.5 µM | 0.5 to 5 µM
CS(=O)(=O)CCCn1cc(Nc2nc(N[C@H]3CC[C@H](N4CCOCC4)CC3)c3cc(C#N)ccc3n2)cn1 [Compound I-25, 2-((1-(3-(methylsulfonyl)propyl)-1H-pyrazol-4-yl)amino)-4-(((1r,4r)-4-morpholinocyclohexyl)amino)quinazoline-6-carbonitrile] | ≤ 5 µM | 0.5 to 5 µM | 0.5 to 5 µM
CCc1ccc2ncnc(N[C@H]3CC[C@H](N4CCC(C)(C)CC4)CC3)c2c1 [Compound I-45, N-((1r,4r)-4-(4,4-dimethylpiperidin-1-yl)cyclohexyl)-6-ethylquina-zolin-4-amine] | ≤ 5 µM | – | –
N#Cc1ccc2nccc(N[C@H]3CC[C@H](N4CCC5(CC4)CC5)CC3)c2c1 [Compound I-48, 4-(((1r,4r)-4-(6-azaspiro[2.5]octan-6-yl)cyclohexyl)-amino)quinoline-6-carbonitrile] | ≤ 5 µM | – | –
C=Cc1ccc2nccc(N[C@H]3CC[C@H](N4CCC5(CC4)CC5)CC3)c2c1 [Compound I-49, N-((1r,4r)-4-(6-azaspiro[2.5]octan-6-yl)cyclohexyl)-6-vinylquino-lin-4-amine] | ≤ 5 µM | – | –
NC(=O)CCc1ccc2ncnc(N[C@H]3CC[C@H](N4CCOCC4)CC3)c2c1 [Compound I-50, 3-(4-(((1r,4r)-4-morpholinocyclohexyl)amino)quinazolin-6-yl)propanamide] | ≤ 5 µM | – | –
N#CCCc1ccc2ncnc(N[C@H]3CC[C@H](N4CCOCC4)CC3)c2c1 [Compound I-51, 3-(4-(((1r,4r)-4-morpholinocyclohexyl)amino)quinazolin-6-yl)propanenitrile] | ≤ 5 µM | – | –
O=C(O)/C=C/c1ccc2ncnc(N[C@H]3CC[C@H](N4CCOCC4)CC3)c2c1 [Compound I-55, (E)-3-(4-(((1 r,4r)-4-morpholinocyclohexyl)amino)quinazolin-6-yl)acrylic acid] | ≤ 5 µM | – | –
CC(C)(O)/C=C/c1ccc2ncnc(N[C@H]3CC[C@H](N4CCOCC4)CC3)c2c1 [Compound I-57, (E)-2-methyl-4-(4-(((1r,4r)-4-morpholinocyclohexyl)amino)quina-zolin-6-yl)but-3-en-2-ol] | ≤ 5 µM | – | –
Cn1cc(-c2ccc3ncnc(N[C@H]4CC[C@H](N5CCOCC5)CC4)c3c2)cn1 [Compound I-60, 6-(1-methyl-1H-pyrazol-4-yl)-N-((1r,4r)-4-morpholinocyclo-hexyl)quinazolin-4-amine] | ≤ 5 µM | – | –
Cc1cc(Nc2nc(N[C@H]3CC[C@H](N4CCOCC4)CC3)c3cc(C#N)ccc3n2)sn1 [Compound I-61, 2-((3-methylisothiazol-5-yl)amino)-4-(((1r,4r)-4-morpholino-cyclohexyl)amino)quinazoline-6-carbonitrile] | ≤ 5 µM | – | –
